Source: patent publication US20140187594A1, “DIPHENYL ETHER COMPOUNDS FOR THE TREATMENT OF LIVER, LUNG DISORDERS, DIABETIC COMPLICATIONS AND CARDIOVASCULAR DISEASES” (ORCHID CHEMICALS AND PHARMACEUTICALS LTD, priority 2010, published 2014)

What was measured:
TNF-α = experiment: LPS induced TNF-α level in NAFLD/NASH mice; type: in vivo; conditions: 100 mg/kg orally 28 days, LPS 500 μg/animal i.p., FIG. 28
Source text: To develop NAFLD/NASH model, the same protocol was followed as mentioned in Experiment-2. After induction, animals were further grouped as follows. Animals fed normal chow diet (n=10) served as a normal control (Group I) and animals fed HFD and HFL were further divided into two groups as disease control (Group II) (n=10) and treatment group (Group III) (n=9). Duration of the treatment was 28 days. During this period Group I and Group II animals were received water as vehicle and Group III animals were treated with compound of formula (A) 100 mg/kg orally. On 27th day, animals were kept for 12 hours fasting and on 28th day, after 60 minutes of treatment, animals were challenged with LPS (500 μg/animal) by intraperitoneal route. Then after 90 minutes of LPS challenge, blood collection was carried out, plasma and serum were separated and stored at −80° C. in deep freezer for further analysis. Following blood collection, animals were sacrificed; liver, inguinal and epididymal fats were collected and weighed.
(§1) The parameters like Glucose, ALT, AST, TC, TG (Clinical chemistry analyzer Erba XL 300), insulin (Linco®-CA, Product code: EZRMI-13K) and TNFα (GE Healthcare, Amersham, UK. Product code: RPN2718) were measured using commercially available kits. NEFA was measured in serum using commercially available NEFA C kit (Product code No: 279-75401, Wako pure chemical industries ltd., Japan).

DIO mice = experiment: Insulin resistance (HOMA-IR) in diet induced obese mice; type: in vivo, C57BL/6 mice; conditions: 30 mg/kg for 28 days, FIG. 22
Experimental: The animal model with obesity with insulin resistance was developed by feeding 60 Kcal % high fat diet, which simulates several features of human obesity and insulin resistance. These features were treated as mentioned below. […] C57BL/6 male mice aged 6-8 weeks, and body weight ranges between 16-22 g were used. Animals were divided into two groups. First group (n=10) was treated as a normal control fed chow feed (Nutri Labe Rodent, Tetragon Chemie Pvt. Ltd., Bangalore) and the second group (n=25) fed 60 Kcal % high fat diet (HFD) (Research Diets, New Brunswick, N.J., Cat# D12492 with blue dye) for 120 days. At the end of induction period the animals were selected based on insulin resistance for further study. […] During this period, body weight and feed intake was recorded daily. […]
as §1

HC-HF diet fed Hamsters = experiment: HC-HF diet fed dyslipidemic hamsters; type: in vivo, Golden Syrian hamsters; conditions: 28 days
Experimental: Dyslipidemia in hamsters were developed by feeding supranutritional diet with fructose liquid (10%) which simulates features of dyslipidemia in human. These features were treated as mentioned below. Thirty male Golden Syrian hamsters aged 14-16 weeks, body weight ranges between 100-160 g were used for this study. Animals were divided into two groups. First group (n=7) was treated as a normal control and was fed with chow feed (Nutri Lab® Rodent, Tetragon Chemie Pvt. Ltd., Bangalore) and the second group (n=23) was fed with HC-HF diet (in-house made), the composition of which were Corn oil 11.50%, Coconut oil 11.50%, Cholesterol 0.50%, Sodium cholate 0.25% and Nutri Lab® feed 76.25% and animals were provided with 10% fructose in the drinking water. […] During this period, animal body weight was recorded daily. […]
The dyslipidemic model was developed in the protocol as mentioned in experimental 4. […] During this period, animal body weight was recorded daily. […]
as §1

[1] = molecular target: T1, Rat lens Aldose reductase (Rattus norvegicus, UniProt P07943); experiment: Aldose reductase inhibitory activity; type: biochemical; conditions: rat lens enzyme, 0.2 mM NADPH, pH 6.2, 25° C.
T1 construct: Rat lens Aldose reductase is used; from tissue; host or cells: rat lens
Experimental: Rat lens Aldose reductase is used. Test compound and/or vehicle is preincubated with 3000 μg/ml enzyme (J. Enzyme Inhib. 1993, 7, 249-256; Biol. Pharm. Bull. 1994, 17, 458-459) and 0.2 mM NADPH in phosphate buffer pH 6.2 for 15 minutes at 25° C. The reaction is initiated by addition of 10 mM DL-glyceraldehyde and incubated for another 20 minutes. Determination of the amount of NADPH remained is read spectrophotometrically. Compounds are screened at 10 μM. Since enzyme activity may change from lot to lot, the concentration used will be adjusted if necessary.

[2] = test system: acute alcohol induced hypertriglyceridemic mice; experiment: Acute alcohol induced hypertriglyceridemia; type: in vivo, C57BL/6 mice; conditions: (A) 100 mg/kg, disodium salt of (C) 30 mg/kg p.o., seven days, 40% alcohol challenge; FIG. 33
Experimental: Male C57BL/6 mice aged 6-8 weeks, and body weight ranges between 22-28 g were used for this study. Animals were divided into four groups (n=8) and fed normal chow feed (Nutri Lab® Rodent, Tetragon Chemie Pvt. Ltd., Bangalore) and drinking water. The Group I and Group II animals were served as a normal and disease control treated with vehicle. Group III (n=8) and Group IV (n=8) animals were treated with compound of formula (A) and disodium salts of compound of formula (C) at 100 and 30 mg/kg p.o respectively for seven days. On 7th day one hour post administration of compounds Group II, Group III and Group IV animals were challenged with 40% alcohol (10 ml/kg b.w) p.o. Eighteen hours post challenge animals were bled, plasma separated and used for biochemical parameter analysis.
as §1

- IC50 [1]: 4.07 µM
SMILES: COC(=O)[C@@H](N)Cc1ccc(Oc2ccc(CC3SC(=O)NC3=O)cc2)cc1 (stereo partly drawn) [Compound of formula (A), Methyl(2S)-2-amino-3-(4-{4-[(2,4-dioxo-1,3-thiazolidin-5-yl)methyl]phenoxy}phenyl)propanoate]
- TNF-α levels (TNF-α): reduction
- HOMA-IR (DIO mice): improvement in HOMA-IR
- NEFA (HC-HF diet fed Hamsters; 30 and 100 mg/kg p.o., FIG. 15): significant reduction
- plasma TG (HC-HF diet fed Hamsters; (A) 30 and 100 mg/kg, disodium salt of (C) 10 and 30 mg/kg p.o., FIGS. 14 & 29): significant reduction
- plasma TG [2]: significant reduction in TG
